Results published in patent publication US20210330611A1, “THERAPY FOR NEUROLOGICAL DISEASES/DISORDERS” (priority 2020, published 2021).
pIC50: −log10 of the molar value. Read-outs that look alike come from different tables or passages of the source.

How the values were obtained:
[1] = system: primary rat microglia; experiment: Cell toxicity (dead cells, size <150 μm2) in LPS assay
[2] = system: primary rat microglia; experiment: Cell toxicity (dead cells, size <150 μm2) in coated fibrin (cFib) assay;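 further: share of dead cells sized under 150 µm2 at 10 µM in fibrin-stimulated microglia HTS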
[3] = system: LPS-induced microglia activation; experiment: Image-based assay of LPS-induced microglia activation (HTS and dose response); format: cell-based, rat; conditions: for inhibition at 10 µM: read-out: LPS % inhibition
[4] = system: fibrin- and LPS-induced microglia activation; experiment: cells; format: cell-based, rat
[5] = system: fibrin-induced microglia activation; experiment: Image-based assay of fibrin-induced microglia activation (HTS and dose response); format: cell-based, rat; conditions: for inhibition at 10 µM: read-out: Fibrin % inhibition
[6] = primary microglia HTS, LPS stimulation, decreased size (<150 μm^2) as marker of toxicity
[7] = primary microglia HTS, fibrin stimulation, decreased size (<150 μm^2) as marker of toxicity
[8] = Rattus norvegicus, Microglia, 48 h, primary microglia HTS, LPS stimulation, increased cell size (>800 μm^2) as marker of activation
[9] = quadrant by fibrin and LPS inhibition in HTS of 1907 compounds
[10] = Rattus norvegicus, Microglia, primary microglia HTS, fibrin stimulation, increased cell size (>800 μm^2) as marker of activation
[11] = primary microglia HTS, LPS stimulation, toxicity = cell size <150 μm2
[12] = primary microglia HTS, fibrin stimulation, toxicity = cell size <150 μm2
[13] = Rattus norvegicus, Microglia, 48 h, primary microglia HTS, LPS stimulation, activation = cell size >800 μm2
[14] = Rattus norvegicus, Microglia, primary microglia HTS, fibrin stimulation, activation = cell size >800 μm2
[15] = primary HTS, 10 μM, LPS assay, dead cells size <150 μm2
[16] = primary HTS, 10 μM, fibrin assay, dead cells size <150 μm2
[17] = Rattus norvegicus, Microglia, primary HTS, 10 μM, LPS-stimulated primary microglia
[18] = Rattus norvegicus, Microglia, primary HTS, 10 μM, fibrin-stimulated primary microglia
[19] = primary microglia HTS, 10 μM, LPS assay, cell size <150 μm^2 as marker of toxicity
[20] = primary microglia HTS, 10 μM, fibrin assay, cell size <150 μm^2 as marker of toxicity
[21] = Rattus norvegicus, Microglia, primary microglia HTS, 10 μM, LPS-stimulated, cell size >800 μm^2 as marker of activation
[22] = HTS of 1907 compounds, quadrant by fibrin and LPS inhibition
[23] = Rattus norvegicus, Microglia, primary microglia HTS, 10 μM, fibrin-stimulated, cell size >800 μm^2 as marker of activation

Molecule	LPS % cell toxicity [1, 6] [%]	Fibrin % cell toxicity [2, 7] [%]	inhibition at 10 µM [3, 8] [%]	Quadrant (FIG. 5b) [4, 9]	inhibition at 10 µM [5, 10] [%]	LPS % cell toxicity [1, 15] [%]	Fibrin % cell toxicity [2, 16] [%]	inhibition at 10 µM [3, 17] [%]	Quadrant (FIG. 5b) ([4]; primary HTS, 10 μM)	inhibition at 10 µM [5, 18] [%]	also measured
CN1C[C@H](CNC(=O)OCc2ccccc2)C[C@@H]2c3cccc4c3c(cn4C)C[C@H]21 [Metergoline]	0	1	16	Q4	-12	–	–	–	–	–	–
N=C1NC(=O)N2CC12 (stereo not drawn) [Imexon]	–	–	–	Q4	–	–	–	–	–	–	LPS % cell toxicity [1, 11]: 1%; Fibrin % cell toxicity [2, 12]: 1%; inhibition at 10 µM [3, 13]: 12%; inhibition at 10 µM [5, 14]: -3%
CC(=O)OCC(=O)[C@@]1(O)CC[C@H]2[C@@H]3CCC4=CC(=O)CC[C@]4(C)[C@H]3[C@@H](O)C[C@@]21C [Hydrocortisone acetate, reference compound]	4	4	89	Q2	112	–	–	–	–	–	pIC50 ([3]; Rattus norvegicus, Microglia, Table 7, read-out: LPS_IC50): 7.77; Quadrant (FIG. 5b) ([4]; Table 2, screen at 10 μM): Q2; Activity ([4]; Table 7, fib = fibrin, LPS, tox = toxicity): fib/LPS; pIC50 ([5]; Rattus norvegicus, Microglia, Table 7, read-out: fib_IC50): 8.00
Cc1c(OCC(F)(F)F)ccnc1C[S+]([O-])c1nc2ccccc2[nH]1 (stereo not drawn) [Lansoprazole]	–	–	–	Q4	–	–	–	–	–	–	LPS % cell toxicity [1, 11]: 0%; Fibrin % cell toxicity [2, 12]: 0%; inhibition at 10 µM [3, 13]: 15%; inhibition at 10 µM [5, 14]: 3%
CC(C)(Oc1ccc(CCNC(=O)c2ccc(Cl)cc2)cc1)C(=O)O [Bezafibrate]	–	–	–	–	–	0	0	18	Q4	-4	–
CCN(CCCCOC(=O)c1ccc(OC)c(OC)c1)C(C)Cc1ccc(OC)cc1 (stereo not drawn) [Mebeverine]	0	0	7	Q4	-11	–	–	–	–	–	–
CCOc1nc2cccc(C(=O)O)c2n1Cc1ccc(-c2ccccc2-c2nnn[nH]2)cc1 [Candesartan]	–	–	–	–	–	0	1	11	Q4	9	–
C=C[C@H]1CN2CC[C@H]1C[C@H]2[C@H](O)c1ccnc2ccccc12 [Cinchonidine]	–	–	–	–	–	0	1	4	Q4	13	–
Cc1nc2ccccc2n1Cc1ccc(Cl)cc1 [Chlormidazole]	2	1	70	Q1	38	–	–	–	–	–	–
CC1COc2c(N3CCN(C)CC3)c(F)cc3c(=O)c(C(=O)O)cn1c23 (stereo not drawn) [Ofloxacin]	0	1	16	Q4	-13	–	–	–	–	–	–
Cc1cccc(CN2CCN(C(c3ccccc3)c3ccc(Cl)cc3)CC2)c1 (stereo not drawn) [Meclizine]	0	0	12	Q4	-33	–	–	–	–	–	–
N#Cc1nn(-c2c(Cl)cc(C(F)(F)F)cc2Cl)c(N)c1[S+]([O-])C(F)(F)F (stereo not drawn) [Fipronil]	–	–	–	Q4	–	–	–	–	–	–	LPS % cell toxicity [1, 11]: 0%; Fibrin % cell toxicity [2, 12]: 1%; inhibition at 10 µM [3, 13]: 12%; inhibition at 10 µM [5, 14]: -5%
C[C@@H]1C[C@H]2[C@@H]3CCC4=CC(=O)C=C[C@]4(C)[C@@]3(F)[C@@H](O)C[C@]2(C)[C@H]1C(=O)CO [Desoximetasone]	3	5	91	Q2	101	–	–	–	–	–	–
CCOC(=O)n1ccn(C)c1=S [Carbimazole]	–	–	–	–	–	0	0	8	Q4	-32	–
CC(=O)N(c1onc(C)c1C)S(=O)(=O)c1ccc(N)cc1 [Sulfisoxazole Acetyl]	–	–	–	–	–	–	–	–	–	–	LPS % cell toxicity [1, 19]: 1%; Fibrin % cell toxicity [2, 20]: 1%; inhibition at 10 µM [3, 21]: 17%; Quadrant (FIG. 5b) [4, 22]: Q4; inhibition at 10 µM [5, 23]: -3%
CCCCCCCC/C=C\CCCCCCCC(=O)O [Oleic Acid]	1	1	25	Q4	23	–	–	–	–	–	–
CC(C)NCC(O)COc1ccc(COCCOC(C)C)cc1 (stereo not drawn) [Bisoprolol]	–	–	–	–	–	0	0	13	Q4	1	–
O=C(O)CCNC(=O)c1ccccc1 [Betamipron]	–	–	–	–	–	0	1	14	Q4	-6	–
COc1ccc(/C=C/C(=O)Nc2ccccc2C(=O)O)cc1OC [Tranilast]	–	–	–	–	–	–	–	–	–	–	LPS % cell toxicity [1, 19]: 0%; Fibrin % cell toxicity [2, 20]: 0%; inhibition at 10 µM [3, 21]: 22%; Quadrant (FIG. 5b) [4, 22]: Q4; inhibition at 10 µM [5, 23]: 35%
Chlorophyllide Cu Complex Na Salt	–	–	–	–	–	0	0	–	Q4	–	LPS % inhibition ([3]; primary HTS, 10 μM, LPS-stimulated primary microglia): 9%; Fibrin % inhibition ([5]; primary HTS, 10 μM, fibrin-stimulated primary microglia): −36%
O=C(O)Cc1cc(I)c(Oc2ccc(O)c(I)c2)c(I)c1 [Tiratricol]	–	–	–	–	–	–	–	–	–	–	LPS % cell toxicity [1, 19]: 0%; Fibrin % cell toxicity [2, 20]: 1%; inhibition at 10 µM [3, 21]: 13%; Quadrant (FIG. 5b) [4, 22]: Q4; inhibition at 10 µM [5, 23]: -51%
CC(C)(C)NC[C@H](O)COc1cccc2c1CCCC2=O [Levobunolol]	–	–	–	Q4	–	–	–	–	–	–	LPS % cell toxicity [1, 11]: 0%; Fibrin % cell toxicity [2, 12]: 1%; LPS % inhibition ([3]; primary microglia HTS, LPS stimulation, activation = cell size >800 μm2): 30%; Fibrin % inhibition ([5]; primary microglia HTS, fibrin stimulation, activation = cell size >800 μm2): −28%
COCC1=C(C(=O)OC(C)OC(=O)OC(C)C)N2C(=O)[C@@H](NC(=O)/C(=N\OC)c3csc(N)n3)[C@H]2SC1 (stereo partly drawn) [Cefpodoxime Proxetil]	–	–	–	–	–	0	0	12	Q4	-39	–
NC(=O)c1cc[n+](CC2=C(C(=O)O)N3C(=O)[C@@H](NC(=O)[C@@H](c4ccccc4)S(=O)(=O)[O-])[C@H]3SC2)cc1 [Cefsulodin Sodium]	–	–	–	–	–	0	0	14	Q4	3	–
CC(=O)N(CC(O)CO)c1c(I)c(C(=O)NCCO)c(I)c(C(=O)NCC(O)CO)c1I (stereo not drawn) [Ioxilan]	–	–	–	Q4	–	–	–	–	–	–	LPS % cell toxicity [1, 11]: 0%; Fibrin % cell toxicity [2, 12]: 0%; inhibition at 10 µM [3, 13]: 8%; inhibition at 10 µM [5, 14]: 7%
OC[C@@H](O)[C@@H](O)[C@H](O)[C@H](O)CO [Mannitol]	0	1	0	Q4	5	–	–	–	–	–	–
CCCCOC(=O)c1ccc(N)cc1 [Butamben]	–	–	–	–	–	1	0	14	Q4	-25	–
CN(C)c1cc(NC(=O)CNC(C)(C)C)c(O)c2c1C[C@H]1C[C@H]3[C@H](N(C)C)C(O)=C(C(N)=O)C(=O)[C@@]3(O)C(O)=C1C2=O [Tigecycline]	–	–	–	–	–	–	–	–	–	–	LPS % cell toxicity [1, 19]: 0%; Fibrin % cell toxicity [2, 20]: 0%; inhibition at 10 µM [3, 21]: 13%; Quadrant (FIG. 5b) [4, 22]: Q4; inhibition at 10 µM [5, 23]: 7%
